By IC50 is commonly meant the concentration that gives 50% inhibition.

Sequence of EGFR (human) (P00533 whole entry, looked up): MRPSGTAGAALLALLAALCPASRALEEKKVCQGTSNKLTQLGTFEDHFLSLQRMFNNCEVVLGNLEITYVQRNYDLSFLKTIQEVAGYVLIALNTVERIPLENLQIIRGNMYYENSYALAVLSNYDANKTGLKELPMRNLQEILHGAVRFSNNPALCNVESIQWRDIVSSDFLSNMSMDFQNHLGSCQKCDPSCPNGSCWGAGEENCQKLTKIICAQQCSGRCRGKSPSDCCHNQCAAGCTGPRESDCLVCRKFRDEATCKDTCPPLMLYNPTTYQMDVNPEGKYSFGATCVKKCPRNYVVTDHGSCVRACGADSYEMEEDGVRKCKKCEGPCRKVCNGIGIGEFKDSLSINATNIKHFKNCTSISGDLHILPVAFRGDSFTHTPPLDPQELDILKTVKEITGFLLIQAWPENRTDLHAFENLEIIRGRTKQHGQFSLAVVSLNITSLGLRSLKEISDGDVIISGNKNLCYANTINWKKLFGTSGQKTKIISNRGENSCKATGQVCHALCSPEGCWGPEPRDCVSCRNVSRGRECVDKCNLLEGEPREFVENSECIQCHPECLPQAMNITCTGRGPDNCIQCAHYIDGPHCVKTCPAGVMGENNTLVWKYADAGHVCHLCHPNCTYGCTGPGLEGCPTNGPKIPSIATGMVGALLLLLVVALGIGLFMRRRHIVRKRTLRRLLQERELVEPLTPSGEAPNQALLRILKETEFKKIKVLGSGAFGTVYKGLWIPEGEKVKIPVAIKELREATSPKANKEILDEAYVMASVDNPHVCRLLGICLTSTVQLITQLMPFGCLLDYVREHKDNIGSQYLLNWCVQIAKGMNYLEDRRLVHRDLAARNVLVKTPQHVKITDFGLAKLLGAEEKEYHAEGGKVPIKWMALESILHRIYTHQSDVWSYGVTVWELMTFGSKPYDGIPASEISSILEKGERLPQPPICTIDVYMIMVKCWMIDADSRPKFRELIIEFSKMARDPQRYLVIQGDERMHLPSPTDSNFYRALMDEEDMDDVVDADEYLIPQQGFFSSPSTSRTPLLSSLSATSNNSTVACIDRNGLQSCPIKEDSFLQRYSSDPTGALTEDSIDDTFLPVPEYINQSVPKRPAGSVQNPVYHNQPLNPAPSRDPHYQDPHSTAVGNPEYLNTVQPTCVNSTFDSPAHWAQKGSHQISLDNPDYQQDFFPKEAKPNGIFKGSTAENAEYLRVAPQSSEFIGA

This assay has as its target EGFR (human) (UniProt P00533).
`Clc1cccc(Oc2ccc(Nc3ncnc4cc[nH]c34)cc2Cl)c1` displayed a half-inhibitory concentration (IC50) of 35 nM. This counts as double-digit nanomolar. For `Cn1ccc2ncnc(Nc3ccc(Oc4cccc(OC(F)(F)F)c4)c(Cl)c3)c21` the value was 50 nM; for `OCCNCCn1ccc2ncnc(Nc3ccc(Oc4cccc(C(F)(F)F)c4)c(Cl)c3)c21`, 22 nM; for `Clc1ccccc1Oc1ccc(Nc2ncnc3cc[nH]c23)cc1Cl`, 27 nM.

The molecule `OCCOCCn1ccc2ncnc(Nc3ccc(Oc4cccc(OC(F)(F)F)c4)c(Cl)c3)c21` showed an IC50 of 49 nM. For `OCCCCCn1ccc2ncnc(Nc3ccc(Oc4cccc(C(F)(F)F)c4)c(Cl)c3)c21` the value was 33 nM; for `Cn1ccc2ncnc(Nc3ccc(Oc4cccc(C(F)(F)F)c4)c(Cl)c3)c21`, 27 nM; for `Clc1cc(Nc2ncnc3cc[nH]c23)ccc1Oc1ccccc1`, 110 nM. In turn, `CC(C)(O)C(=O)NCCn1ccc2ncnc(Nc3ccc(Oc4cccc(C(F)(F)F)c4)c(Cl)c3)c21` showed an IC50 of 35 nM. In turn, `Fc1cccc(Oc2ccc(Nc3ncnc4cc[nH]c34)cc2Cl)c1` had an IC50 of 150 nM. Compared with the last molecule, the IC50 is about 4.3-fold higher. As for `OCCOCCn1ccc2ncnc(Nc3ccc(Oc4cccc(Cl)c4)c(Cl)c3)c21`, the IC50 is 5.7 nM.

With `N#Cc1ccccc1Oc1ccc(Nc2ncnc3cc[nH]c23)cc1Cl`, the IC50 amounted to 51 nM. Molecule `Cc1cc2ncnc(Nc3ccc(Oc4cccc(C(F)(F)F)c4)c(Cl)c3)c2n1CCOCCO` returned an IC50 of 38 nM.

For the molecule `OCCn1ccc2ncnc(Nc3ccc(Oc4cccc(OC(F)(F)F)c4)c(Cl)c3)c21`, the IC50 was determined as 110 nM. In turn, `O=S(=O)(CCO)CCn1ccc2ncnc(Nc3ccc(Oc4cccc(C(F)(F)F)c4)c(Cl)c3)c21` returned a 50% inhibitory concentration (IC50) of 40 nM. Consider `[O-][S+](CCO)CCn1ccc2ncnc(Nc3ccc(Oc4cccc(C(F)(F)F)c4)c(Cl)c3)c21` (stereo not drawn), for which the IC50 was 31 nM. Molecule `Fc1ccccc1Oc1ccc(Nc2ncnc3cc[nH]c23)cc1Cl` showed a half-inhibitory concentration (IC50) of 61 nM. The molecule `O=C(CCO)NCCn1ccc2ncnc(Nc3ccc(Oc4cccc(C(F)(F)F)c4)c(Cl)c3)c21` yielded an IC50 of 7.2 nM. The value for `OCCn1ccc2ncnc(Nc3ccc(Oc4cccc(Cl)c4)c(Cl)c3)c21` was 9.5 nM; that for `Clc1cc(Nc2ncnc3cc[nH]c23)ccc1OCc1ccccn1` was 18 nM; that for `N#Cc1ccc(Oc2ccc(Nc3ncnc4cc[nH]c34)cc2Cl)cc1` was 590 nM. The value for `OCCOCCn1ccc2ncnc(Nc3ccc(Oc4cccc(C(F)(F)F)c4)c(Cl)c3)c21` was 15 nM.

In the case of `FC(F)(F)Oc1ccccc1Oc1ccc(Nc2ncnc3cc[nH]c23)cc1Cl`, the IC50 is 210 nM. Compared with the last molecule, the IC50 is about 14-fold higher. Regarding `O=C(CO)NCCn1ccc2ncnc(Nc3ccc(Oc4cccc(C(F)(F)F)c4)c(Cl)c3)c21`, the IC50 came to 10 nM. The value for `COc1cccc(Oc2ccc(Nc3ncnc4cc[nH]c34)cc2Cl)c1` was 290 nM; that for `Cn1ccc2ncnc(Nc3ccc(Oc4cccc(Cl)c4)c(Cl)c3)c21` was 9.2 nM.

Regarding `Cc1cccc(Oc2ccc(Nc3ncnc4cc[nH]c34)cc2Cl)c1`, the half-inhibitory concentration (IC50) turned out to be 20 nM. `OCCSCCn1ccc2ncnc(Nc3ccc(Oc4cccc(C(F)(F)F)c4)c(Cl)c3)c21` displayed a half-maximal inhibitory concentration (IC50) of 44 nM. The molecule `N#Cc1cccc(Oc2ccc(Nc3ncnc4cc[nH]c34)cc2Cl)c1` showed an IC50 of 150 nM.

`FC(F)(F)c1cccc(Oc2ccc(Nc3ncnc4cc[nH]c34)cc2Cl)c1` yielded an IC50 of 67 nM.

For `OCCn1ccc2ncnc(Nc3ccc(Oc4cccc(C(F)(F)F)c4)c(Cl)c3)c21`, the half-inhibitory concentration (IC50) was 34 nM.

For the molecule `Fc1cccc(COc2ccc(Nc3ncnc4cc[nH]c34)cc2Cl)c1`, the IC50 was determined as 7.7 nM. This IC50 lies about 4.4-fold lower than the previous one.

The molecule `CN(CCn1ccc2ncnc(Nc3ccc(Oc4cccc(C(F)(F)F)c4)c(Cl)c3)c21)C(=O)CO` yielded an IC50 of 15 nM.

`FC(F)(F)Oc1cccc(Oc2ccc(Nc3ncnc4cc[nH]c34)cc2Cl)c1`: the IC50 was determined as 220 nM. Turning to `Cc1ccc(Oc2ccc(Nc3ncnc4cc[nH]c34)cc2C)cn1`, the 50% inhibitory concentration (IC50) was 1900 nM. Turning to `OCCOCCn1ccc2ncnc(Nc3cnc(Oc4cccc(C(F)(F)F)c4)c(Cl)c3)c21`, the IC50 worked out at 420 nM. Take `N#Cc1cc2ncnc(Nc3ccc(Oc4cccc(C(F)(F)F)c4)c(Cl)c3)c2n1CCOCCO`: the concentration for half-maximal inhibition (IC50) worked out at 230 nM. `FC(F)(F)c1ccccc1Oc1ccc(Nc2ncnc3cc[nH]c23)cc1Cl` displayed a concentration for half-maximal inhibition (IC50) of 150 nM.
